# According to patent publication EP4733303A1, “MUSCARINIC M4 RECEPTOR AGONIST AND USE THEREOF” (Haisco Pharmaceutical Group Co., Ltd., priority 2023, dated 2024):
# Biological target: T1, M4 receptor (Homo sapiens, UniProt P08173)
# T1 construct: expressed in transfected cells; host or cells: CHO (M4-CHO cells)
# T1 sequence (P08173 1-479): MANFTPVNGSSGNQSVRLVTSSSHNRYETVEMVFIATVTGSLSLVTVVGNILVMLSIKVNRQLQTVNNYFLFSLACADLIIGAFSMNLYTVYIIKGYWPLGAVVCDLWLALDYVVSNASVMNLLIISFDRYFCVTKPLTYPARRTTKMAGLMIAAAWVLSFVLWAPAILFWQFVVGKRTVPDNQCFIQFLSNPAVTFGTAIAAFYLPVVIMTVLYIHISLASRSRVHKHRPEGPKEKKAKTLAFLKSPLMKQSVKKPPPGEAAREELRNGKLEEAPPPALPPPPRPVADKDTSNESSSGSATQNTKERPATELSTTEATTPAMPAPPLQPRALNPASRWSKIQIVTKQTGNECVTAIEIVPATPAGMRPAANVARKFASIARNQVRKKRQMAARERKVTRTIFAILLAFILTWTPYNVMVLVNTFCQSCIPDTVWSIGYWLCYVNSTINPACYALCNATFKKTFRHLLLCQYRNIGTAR
# Assay: PAM agonistic activity of compound on M4 receptor (FLIPR Calcium 6 assay in M4-CHO cells)
# Format: cell-based
# Details: with acetylcholine (Ach), final concentration 3 nM
# Protocol: • 1). Cell plating: M4-CHO cells were digested, collected, and resuspended. After cell counting, the cell suspension was seeded into a 384-well cell plate at a density of: 1.2 × 10^4 cells/25 µL/well. The cell plate was then cultured in a 37°C, 5% CO2 incubator for about 16-20 h. • 2). Day 2: Assay Buffer was prepared according to the instructions of the FLIPR Calcium 6 Assay Kit. Component A (20×) was thawed to room temperature and diluted with the Assay Buffer to prepare a loading buffer (1×), which was stored at room temperature until use. • 3). The culture medium was removed from the cell plate. 40 µL of the loading buffer (1×) was quickly added to each well. The cell plate was then centrifuged and incubated at 37°C in the dark for 120 min. • 4). Working solutions of the positive control compound and the test compounds were prepared. An acetylcholine (Ach) agonist compound solution was prepared (final concentration: 3 nM). The PAM compound and the Ach agonist solution were mixed at a 1 : 1 ratio, and the mixture was transferred into a 384-well compound source plate at 20 µL per well. • 5). The cell plate, the compound source plate, and the pipette tips were placed into the corresponding positions within the FLIPR instrument. 10 µL of the diluted compound from step 4 was added into each experimental well using the FLIPR Tetra. Data was collected at the wavelength of 515 nm-575 nm. • 6). The signal values were plotted against the compound concentrations. Nonlinear regression analysis was performed using GraphPad Prism software for curve fitting and EC50 calculation.
# The experimental results are shown in Table 1, where A represents EC50 < […]; B represents 100 nM ≤ EC50 < 500 nM, and C represents 500 nM ≤ EC50. Table 1. Agonistic activity of compounds on M4 receptor
row,SMILES,EC50 [nM]
1,Cc1ncn(-c2cc(N3CC(CC(=O)N4Cc5nc(-c6ccnn6C)nc(C)c5C4)C3)ccn2)n1 [Compound 146],< 100
2,Cc1c2c(n(C)c(=O)c1F)CN(C(=O)CC1CN(c3ccnc(C(F)(F)F)c3)C1)C2 [Compound 176],< 100
3,Cc1cc(C)c2c(n1)CN(C(=O)CC1CN(c3ccnc(-n4cc(C(F)(F)F)nc4C)c3)C1)C2 [Compound 46],< 100
4,Cc1c2c(nc3c1CN(C(=O)CC1CN(c4ccnc(OC5CCOC5)c4)C1)C3)CCC2 (stereo not shown) [Compound 93],< 100
5,Cc1cc(=O)n(C)c2c1CN(C(=O)CC1CN(c3ccnc(OC4CC(F)(F)C4)c3)C1)C2 [Compound 101],< 100
6,Cc1cc(-c2cnn(C)c2)nc2c1CN(C(=O)CC1CN(c3ccnc(OC4CC4)c3)C1)C2 [Compound 148],< 100
7,Cc1c2c(n(C(F)F)c(=O)c1F)CN(C(=O)CC1CN(c3ccnc(OC4CCOC4)c3)C1)C2 (stereo not shown) [Compound 198],< 100
8,Cc1nc(-c2ccnn2C)nc2c1CN(C(=O)CC1CN(c3ccnc(OC4CC(F)(F)C4)c3)C1)C2 [Compound 144],< 100
9,Cc1ccn(-c2cc(N3CC(CC(=O)N4Cc5nc(COC6CC6)cc(C)c5C4)C3)ccn2)n1 [Compound 91],< 100
10,Cc1ccn(-c2cc(N3CC(CC(=O)N4Cc5c(C)cc(=O)n(C)c5C4)C3)ccn2)n1 [Compound 99],< 100
11,Cc1csc(-c2cc(N3CC(CC(=O)N4Cc5nc(C)cc(C)c5C4)C3)ccn2)c1 [Compound 23],< 100
12,Cc1cc(C)c2c(n1)CN(C(=O)CC1CN(c3ccnc(-n4nccc4C)c3)C1)C2 [Compound 26],< 100
13,"Cc1cc(-c2cnn(C)c2)nc2c1CN(C(=O)CC1CN(c3ccnc(OC4CC(F)C4)c3)C1)C2 (single isomer, unassigned) [Compound 156]",< 100
14,Cc1cc(=O)n(C)c2c1CN(C(=O)CC1CN(c3ccnc(-n4ccc(C(F)(F)F)n4)c3)C1)C2 [Compound 160],< 100
15,Cc1cc(C)c2c(n1)CN(C(=O)CC1CN(c3ccnc(OC4CC(F)(F)C4)c3)C1)C2 [Compound 25],< 100
16,Cc1cc(-c2cnn(C)c2)nc2c1CN(C(=O)CC1CN(c3ccnc(OC4CCOC4)c3)C1)C2 (stereo not shown) [Compound 170],< 100
17,Cc1nc2c(c(N3CCC3)n1)CN(C(=O)CC1CN(c3ccnc(-n4nccc4C)c3)C1)C2 [Compound 62],< 100
18,Cc1cc(=O)n(C)c2c1CN(C(=O)OC1CN(c3ccnc(OC4CC(F)(F)C4)c3)C1)C2 [Compound 139],< 100
19,Cc1cc(-c2ccnn2C)nc2c1CN(C(=O)CC1CN(c3ccnc(OC4CC(F)(F)C4)c3)C1)C2 [Compound 158],< 100
20,Cc1ccn(-c2cc(N3CC(CC(=O)N4Cc5c(C)cc(=O)n(C(F)F)c5C4)C3)ccn2)n1 [Compound 179],< 100
21,Cc1cc(=O)n(C(F)F)c2c1CN(C(=O)CC1CN(c3ccnc(OC4CCOC4)c3)C1)C2 (stereo not shown) [Compound 180],< 100
22,Cc1cc(=O)n(C)c2c1CN(C(=O)CC1CN(c3ccnc(O[C@H]4CCOC4)c3)C1)C2 [Compound 117],< 100
23,"Cc1ccn(-c2cc(N3CC(CC(=O)N4Cc5nc(C6CCOC6)cc(C)c5C4)C3)ccn2)n1 (single isomer, unassigned) [Compound 186]",< 100
24,Cc1ncn(-c2cc(N3CC(CC(=O)N4Cc5c(C)c(F)c(=O)n(C)c5C4)C3)ccn2)n1 [Compound 211],< 100
25,Cc1cc(C)c2c(n1)CN(C(=O)CC1CN(c3ccnc(C(=O)NC4CC4)c3)C1)C2 [Compound 38],< 100
26,Cc1cc(C)c2c(n1)CN(C(=O)CC1CN(c3ccnc(-n4c(C)nnc4C(F)(F)F)c3)C1)C2 [Compound 43],< 100

row,SMILES,EC50 [nM]
1,Cc1cc(C)c2c(n1)CN(C(=O)CC1CN(c3ccnc(Oc4cnn(C(F)F)c4)c3)C1)C2 [Compound 37],< 100
2,Cc1cc(=O)n(C)c2c1CN(C(=O)CC1CN(c3ccnc(O[C@@H]4CCOC4)c3)C1)C2 [Compound 118],< 100
3,Cc1cc(C)c2c(n1)CN(C(=O)CC1CN(c3ccnc(-c4noc(C(F)(F)F)n4)c3)C1)C2 [Compound 39],< 100
4,Cc1c2c(n(C)c(=O)c1F)CN(C(=O)CC1CN(c3ccnc(Oc4cnn(C)c4)c3)C1)C2 [Compound 214],< 100
5,Cc1c2c(nc3c1CN(C(=O)CC1CN(c4ccnc(-n5cccn5)c4)C1)C3)CCC2 [Compound 95],< 100
6,Cc1cc(C)c2c(n1)CN(C(=O)CC1CN(c3ccnc(O[C@H]4CCOC4)c3)C1)C2 [Compound 52],< 100
7,Cc1nc(-c2cnn(C)c2)nc2c1CN(C(=O)CC1CN(c3ccnc(OC4CCOC4)c3)C1)C2 (stereo not shown) [Compound 168],< 100
8,Cc1c2c(n(C)c(=O)c1Cl)CN(C(=O)CC1CN(c3ccnc(OC4CC(F)(F)C4)c3)C1)C2 [Compound 116],< 100
9,Cc1c2c(n(C)c(=O)c1F)CN(C(=O)CC1CN(c3ccnc(OC4CC4)c3)C1)C2 [Compound 215],< 100
10,Cc1ncn(-c2cc(N3CC(CC(=O)N4Cc5c(C)cc(=O)n(C)c5C4)C3)ccn2)n1 [Compound 127],< 100
11,Cc1cc(=O)n(C)c2c1CN(C(=O)CC1CN(c3ccnc(OC4CC4)c3)C1)C2 [Compound 138],< 100
12,Cc1cc(C)c2c(n1)CN(C(=O)CC1CN(c3ccnc(-n4cnc(C(F)(F)F)n4)c3)C1)C2 [Compound 47],< 100
13,Cc1cc(S(C)(=O)=O)nc2c1CN(C(=O)CC1CN(c3ccnc(OC4CC(F)(F)C4)c3)C1)C2 [Compound 188],< 100
14,Cc1cc(C)c2c(n1)CN(C(=O)CC1CN(c3ccnc(-c4ccnn4C)c3)C1)C2 [Compound 22],< 100
15,Cc1cc(C)c2c(n1)CN(C(=O)CC1CN(c3cc(-n4ccc(F)n4)ncc3F)C1)C2 [Compound 149],< 100
16,"Cc1cc(C2CCOC2)nc2c1CN(C(=O)CC1CN(c3ccnc(C(F)(F)F)c3)C1)C2 (single isomer, unassigned) [Compound 152]",< 100
17,Cc1cc(C)c2c(n1)CN(C(=O)CC1CN(c3ccnc(NC(=O)C4CC4)c3)C1)C2 [Compound 24],< 100
18,Cc1cc(C)c2c(n1)CN(C(=O)CC1CN(c3ccnc(C(=O)c4cnn(C)c4)c3)C1)C2 [Compound 120],< 100
19,Cc1nc(-c2cnn(C)c2)nc2c1CN(C(=O)CC1CN(c3nc(C4CC4)ncc3F)C1)C2 [Compound 207],< 100
20,Cc1c2c(n(C)c(=O)c1F)CN(C(=O)CC1CN(c3ccnc(OC4CC(=C(F)F)C4)c3)C1)C2 (stereo not shown) [Compound 213],< 100
21,"Cc1ccn(-c2cc(N3CC(CC(=O)N4Cc5nc(C6CCOC6)cc(C)c5C4)C3)ccn2)n1 (single isomer, unassigned) [Compound 185]",< 100
22,"Cc1cc(C2CCOC2)nc2c1CN(C(=O)CC1CN(c3ccnc(OC4CC(F)(F)C4)c3)C1)C2 (single isomer, unassigned) [Compound 154]",< 100
23,Cc1cc(=O)n(C)c2c1CN(C(=O)CC1CN(c3ccnc(-n4ccc(F)n4)c3)C1)C2 [Compound 119],< 100
24,Cc1cc(C)c2c(n1)CN(C(=O)CC1CN(c3ccnc(-c4cnn(C(F)F)c4)c3)C1)C2 [Compound 5],< 100
25,Cc1cc(C)c2c(n1)CN(C(=O)CC1CN(c3ccnc(-n4ccc(C(F)F)n4)c3)C1)C2 [Compound 134],< 100
26,Cc1cc(=O)n(C)c2c1CN(C(=O)CC1CN(c3ccnc(C(F)(F)F)c3)C1)C2 [Compound 100],< 100
